Laboratory results as given in patent US20120190586A1, “Synthetic Receptors for Identification of Protein Posttranslation Modifications” (priority 2009, published 2012).
pKd: −log10 of the molar value. Where two headings read alike, the source gives them in different places.

How the values were obtained:
[1] = target: T1, H3 K9 (unmethylated, FAM-QTAR-K-STG-NH2) (Homo sapiens, UniProt P68431); experiment: Fluorescence anisotropy binding of A2B receptors to FAM-labeled histone 3 peptide
T1 construct: peptide consisting of residues 5-11 of histone 3 (H3 K9Men); made in house; host or cells: solid-phase chemical peptide synthesis
Procedure: (§1) Fluorescence anisotropy was used to measure the dissociation constant of rac- and meso-A2B to a peptide consisting of residues 5-11 of histone 3 (H3 K9Men), with each of the methylation states at Lys 9 as well as an N-terminal carboxyfluorescein (FAM) for fluorescence detection. Binding affinities for H3 K9Me3 were also confirmed by ITC (see below).
(§2) H3 K9Men: FAM-QTAR-KMen-STG-NH2, n=0-3
(§3) Fluorescence Anisotropy. Binding assays were performed with purified rac- or meso-A2B and fluorescein labeled histone 3 peptides. Assays were prepared in 384-well plates (Corning) with a total volume of 50 μL per well, containing 20 μM labeled peptide and increasing concentrations of A2B in buffer (10 mM phosphate pH 8.5). Plates were spun down and allowed to incubate for at least 30 minutes before analysis. Fluorescence anisotropy was measured on a PHERAstar (BMG Labtech) using FP485, 520A, and 520B filters at 27° C. The anisotropy data was plotted as a function A2B concentration and each plot was fitted in KaleidaGraph to the following equation (Wang, Y.; Killian, J.; Hamasaki, K.; Rando, R. R. Biochemistry 1996, 35, 12338-12346):
(§4) where r is fluorescence anisotropy, ro is the initial anisotropy value, r∞ is the maximum anisotropy value, a is the peptide concentration, x is the concentration of A2B, and kd is the dissociation constant. All measurements were taken in duplicate or triplicate.

[2] = target: T2, H3 K9Me (FAM-QTAR-KMe-STG-NH2) (Homo sapiens, UniProt P68431); experiment: as above; settings: 27° C., 10 mM phosphate buffer pH 8.5; errors in parentheses
T2 construct: peptide consisting of residues 5-11 of histone 3 (H3 K9Men); made in house; host or cells: solid-phase chemical peptide synthesis
Procedure: as §1, §2, §3, §4

[3] = target: T3, H3 K9Me2 (FAM-QTAR-KMe2-STG-NH2) (Homo sapiens, UniProt P68431); experiment: as above; settings: 27° C., 10 mM phosphate buffer pH 8.5; errors in parentheses
T3 construct: peptide consisting of residues 5-11 of histone 3 (H3 K9Men); made in house; host or cells: solid-phase chemical peptide synthesis
Procedure: as §1, §2, §3, §4

[4] = target: T4, H3 K9Me3 (FAM-QTAR-KMe3-STG-NH2) (Homo sapiens, UniProt P68431); experiment: as above; settings: for pKd: 27° C., 10 mM phosphate buffer pH 8.5, errors in parentheses; for Affinity for H3 K9Me3 peptide (in words): fluorescence anisotropy
T4 construct: peptide consisting of residues 5-11 of histone 3 (H3 K9Men); made in house; host or cells: solid-phase chemical peptide synthesis
Procedure: as §1, §2, §3, §4

H3 K9Me3 R8G = target: T5, H3 K9Me3 R8G (Homo sapiens, UniProt P68431, R9G); experiment: Fluorescence anisotropy binding to mutant H3 tail with Gly in place of Arg8; settings: 27° C., 10 mM phosphate buffer pH 8.5; errors in parentheses
T5 construct: peptide consisting of residues 5-11 of histone 3 (H3 K9Men); made in house; host or cells: solid-phase chemical peptide synthesis
Procedure: FIG. 11. Fluorescence anisotropy of rac-A2B with H3 KMe3 where Arg8 has been mutated to Gly8 (10 mM sodium phosphate buffer pH 8.5).
as §3, §4

[5] = target: T6, WGGG-GKMe3 (Histone 3 peptide, Gly8) (Homo sapiens, UniProt P68431, R9G); experiment: Isothermal titration calorimetry, peptide titrated into A2B; assay type: binding
T6 construct: made in house; host or cells: solid-phase chemical peptide synthesis
Procedure: FIG. 12. Histone 3 peptide (WGGG-GKMe3) used as the titrant in ITC experiments to confirm A2B binding to KMe3.
Isothermal Titration calorimetry. Isothermal titration calorimetry measurements were conducted using an ITC200 from MicroCal, LLC to verify the binding data obtained by fluorescence anisotropy. A single 0.2 μL aliquot followed by 38 aliquots of 1 μL were titrated into the calorimetric cell every 2.5 minutes. The titrant used to determine the binding to KMe3 was a 2.0 mM solution of the H3 tail peptide in FIG. 12 (in 10 mM phosphate buffer, pH 8.5), containing a Trp for concentration determination and separated from the natural sequence by 3 glycine spacers. This peptide also contained Gly8 as opposed to Arg8 which is found in the native sequence. It has been shown that this mutation has minimal affect on the overall binding affinity. The cell was filled with a 0.2 mM solution of either rac- or meso-A2B (in 10 mM phosphate buffer, pH 8.5). All measurements were carried out at 26° C.

[6] = target: T7, H3 tail, Lys9 mutated to Gly (Homo sapiens, UniProt P68431, K10G); experiment: Binding to H3 tail with Lys9 mutated to Gly
T7 construct: A mutant H3 tail with Gly in place of Arg8; made in house; host or cells: solid-phase chemical peptide synthesis

Ac-KMe3-G-NH2 = experiment: Amplification in biased A2B dynamic combinatorial library (LC-MS); settings: biased library A:B 2:1, 7.5 mM total; Ac-KMe3-G-NH2 template
Procedure: Using a biased library in which building blocks A and B were mixed in a 2:1 ratio (7.5 mM total), the selectivity of the receptors for different methylation states of lysine was investigated, using Ac—KMen-G-NH2 as the guests (n=0-3). A diverse library was generated in the absence of a template, with A2 and A2B3 as the dominant species and rac-A2B and meso-A2B constituting only 2.4% and 1.1% of the total library composition respectively.
Dynamic Combinatorial Chemistry. The relevant building blocks were individually dissolved in water, adding sufficient 1.0 M aqueous NaOH to fully deprotonate the thiols and carboxylic acids on the building blocks, using sonication when necessary. The pH of each solution was then adjusted to 8.5 using 1.0 M aqueous HCl and 1.0 M aqueous NaOH. […] The vials were capped and analyzed at various time points.
Analytical LC-MS. […] Mass spectra (ESI+) were acquired in ultrascan mode by using a drying temperature of 350° C., a nebulizer pressure of 45 psi, a drying gas flow of 10 L/min, and a capillary voltage of 3000 V. The reactions were monitored weekly (3 μL injections) until equilibrium was reached after about 3 weeks. […] The peak areas were integrated at 254 nm and the amplification factors were calculated (A.F.=% area of A2B in templated DCL/% area of A2B in untemplated DCL).

[7] = 26° C., 10 mM phosphate buffer pH 8.5, read-out: Kd by ITC, binding to KMe3

pKd (H3 K9Me3 R8G)	pKd [5, 7]	Binding to H3 tail with Lys9 mutated to Gly (in words) [6]	pKd ([5]; titration of WGGG-GKMe3 into receptor, read-out: Kd by ITC, binding to KMe3 (unit inferred))	SMILES	pKd ([1]; 27° C., 10 mM phosphate buffer pH 8.5)	Binding to the unmethylated histone tail (in words) ([1]; fluorescence anisotropy)	pKd [2]	pKd [3]	pKd [4]	Affinity for H3 K9Me3 peptide (in words) [4]	Amplification in templated DCL, KMe3 guest (Ac-KMe3-G-NH2)
4.47	4.70	total loss of binding	–	O=C(O)C1=C(C(=O)O)C2c3ccc4cc3C1c1ccc(cc12)SSc1ccc2c(c1)C1C(C(=O)O)=C(C(=O)O)C2c2cc(ccc21)SSc1cc(cc(C(=O)O)c1)SS4 (racemic) [rac-A2B]	< 2.92	no appreciable binding	3.78	4.24	4.60	low micromolar affinity	approximately 10 fold
–	4.89	–	4.89	O=C(O)C1=C(C(=O)O)[C@@H]2c3ccc4cc3[C@H]1c1ccc(cc12)SSc1ccc2c(c1)[C@H]1C(C(=O)O)=C(C(=O)O)[C@@H]2c2cc(ccc21)SSc1cc(cc(C(=O)O)c1)SS4 [meso-A2B]	–	–	–	4.14	4.55	low micromolar affinity	approximately 10 fold
